Measured values reported in patent publication US8242274B2, “Triazolopyridine kinase inhibitors useful for the treatment of degenerative and inflammatory diseases” (Galapagos NV, priority 2008, dated 2012).

Experiments:
[1] = target: T1, Recombinant human JAK3 catalytic domain (Homo sapiens, UniProt P52333); test: JAK3 inhibition assay; format: biochemical; details: semi-quantitative score
T1 construct: Recombinant human JAK3 catalytic domain (amino acids 781-1124; catalog number PV3855); purchased Invitrogen PV3855
T1 sequence (P52333 781-1124): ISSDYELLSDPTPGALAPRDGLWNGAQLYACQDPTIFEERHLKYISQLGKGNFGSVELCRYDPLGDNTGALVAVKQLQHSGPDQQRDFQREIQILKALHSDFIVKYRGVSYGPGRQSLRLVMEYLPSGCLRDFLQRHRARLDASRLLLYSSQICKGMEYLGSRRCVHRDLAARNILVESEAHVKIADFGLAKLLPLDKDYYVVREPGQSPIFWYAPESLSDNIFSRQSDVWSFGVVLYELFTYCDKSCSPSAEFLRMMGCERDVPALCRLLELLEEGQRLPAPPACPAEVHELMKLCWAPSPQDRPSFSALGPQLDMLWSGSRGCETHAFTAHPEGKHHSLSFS
Procedure: Recombinant human JAK3 catalytic domain (amino acids 781-1124; catalog number PV3855) was purchased from Invitrogen. 0.025 mU of JAK3 was incubated with 2.5 μg polyGT substrate (Sigma catalog number P0275) in kinase reaction buffer (25 mM Tris pH 7.5, 0.5 mM EGTA, 0.5 mM Na3VO4, 5 mM b-glycerolphosphate, 0.01% Triton X-100, 1 μM non-radioactive ATP, 0.25 μCi 33P-gamma-ATP (GE Healthcare, catalog number AH9968) final concentrations) with or without 5 μL containing test compound or vehicle (DMSO, 1% final concentration), in a total volume of 25 μL, in a polypropylene 96-well plate (Greiner, V-bottom). After 105 min at 30° C., reactions were stopped by adding of 25 μL/well of 150 mM phosphoric acid. All of the terminated kinase reaction was transferred to prewashed (75 mM phosphoric acid) 96 well filter plates (Perkin Elmer catalog number 6005177) using a cell harvester (Perkin Elmer). Plates were washed 6 times with 300 μL per well of a 75 mM phosphoric acid solution and the bottom of the plates was sealed. 40 μL/well of Microscint-20 was added, the top of the plates was sealed and readout was performed using the Topcount (Perkin Elmer). Kinase activity was calculated by subtracting counts per minute (cpm) obtained in the presence of a positive control inhibitor (10 μM staurosporine) from cpm obtained in the presence of vehicle. The ability of a test compound to inhibit this activity was determined as: Percentage inhibition=((cpm determined for sample with test compound present−cpm determined for sample with positive control inhibitor) divided by (cpm determined in the presence of vehicle−cpm determined for sample with positive control inhibitor))*100%.
Dose dilution series were prepared for the compounds enabling the testing of dose-response effects in the JAK3 assay and the calculation of the IC50 for each compound. Each compound was routinely tested at concentration of 20 μM followed by a 1/3 serial dilution, 8 points (20 μM-6.67 μM-2.22 μM-740 nM-247 nM-82 nM-27 nM-9 nM) in a final concentration of 1% DMSO.

hERG channels = target: T2, hERG channels (Homo sapiens, UniProt Q12809); test: hERG patch clamp assay, liability for QT prolongation; format: cell-based
T2 construct: expressed in transfected cells
T2 sequence (Q12809 whole entry): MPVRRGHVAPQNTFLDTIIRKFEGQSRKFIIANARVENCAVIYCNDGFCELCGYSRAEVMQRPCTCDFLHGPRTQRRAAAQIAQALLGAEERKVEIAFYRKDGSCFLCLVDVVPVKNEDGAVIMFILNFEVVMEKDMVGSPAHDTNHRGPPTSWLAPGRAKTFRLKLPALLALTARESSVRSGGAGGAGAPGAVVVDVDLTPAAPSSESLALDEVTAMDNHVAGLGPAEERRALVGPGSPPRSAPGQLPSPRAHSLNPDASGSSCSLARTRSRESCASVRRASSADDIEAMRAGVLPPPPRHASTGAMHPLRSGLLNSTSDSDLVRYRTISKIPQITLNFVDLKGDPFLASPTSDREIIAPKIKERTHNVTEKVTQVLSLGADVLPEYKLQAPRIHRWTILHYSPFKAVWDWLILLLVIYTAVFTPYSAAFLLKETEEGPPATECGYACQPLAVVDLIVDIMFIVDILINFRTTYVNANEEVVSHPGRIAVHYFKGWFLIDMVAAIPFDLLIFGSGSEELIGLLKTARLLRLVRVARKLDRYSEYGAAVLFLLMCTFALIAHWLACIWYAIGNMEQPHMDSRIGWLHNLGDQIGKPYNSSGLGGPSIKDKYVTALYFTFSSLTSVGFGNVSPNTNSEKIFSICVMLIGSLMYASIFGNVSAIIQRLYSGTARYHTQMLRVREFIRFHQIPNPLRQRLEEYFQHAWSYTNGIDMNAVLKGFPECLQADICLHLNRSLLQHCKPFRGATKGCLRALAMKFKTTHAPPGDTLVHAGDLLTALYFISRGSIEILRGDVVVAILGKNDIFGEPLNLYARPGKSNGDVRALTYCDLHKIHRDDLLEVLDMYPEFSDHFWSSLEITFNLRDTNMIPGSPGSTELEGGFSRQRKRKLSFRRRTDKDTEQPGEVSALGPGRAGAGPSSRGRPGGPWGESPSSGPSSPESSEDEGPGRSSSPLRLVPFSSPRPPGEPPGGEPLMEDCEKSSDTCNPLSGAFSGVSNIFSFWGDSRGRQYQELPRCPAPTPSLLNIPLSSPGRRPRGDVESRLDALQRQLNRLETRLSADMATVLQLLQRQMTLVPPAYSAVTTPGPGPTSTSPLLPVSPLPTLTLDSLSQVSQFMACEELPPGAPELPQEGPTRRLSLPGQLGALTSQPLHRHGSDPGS
Procedure: Electrodes were manufactured from GC150TF pipette glass (Harvard), resistance was between 2 and 3 MΩ.
IC50 and IC20 values were calculated for each compound tested. The fold difference between the IC20 and the unbound Cmax concentrations of the test compound obtained at relevant therapeutic doses as determined by results obtained from the rat CIA model was calculated.
For the concentration response curves, peak tail current amplitude was measured during the voltage step to −50 mV.

in vivo = details: male, Sprague-Dawley, rat, po
Procedure: A 7-day oral toxicity study with test compounds was performed in Sprague-Dawley male rats to assess their toxic potential and toxicokinetics, at daily doses of 100, 300 and 500 mg/kg/day, by gavage, at the constant dosage-volume of 5 mL/kg/day.
The test compounds were formulated in 30% (v/v) HPβCD in purified water. Each group included 5 principal male rats as well as 3 satellite animals for toxicokinetics. A fourth group was given 30% (v/v) HPβCD in water only, at the same frequency, dosage volume and by the same route of administration, and acted as the vehicle control group.
Compounds 37 and 176 were tested in this protocol.

[2] = test system: pSTAT1(2)-luciferase reporter; test: JAK-STAT signalling assay (HeLa cells, OSM trigger); format: cell-based; details: human OSM 33 ng/mL
Procedure: HeLa cells were maintained in Dulbecco's Modified Eagle's Medium (DMEM) containing 10% heat inactivated fetal calf serum, 100 U/mL penicillin and 100 μg/mL streptomycin. HeLa cells were used at 70% confluence for transfection. 20,000 cells in 87 μL cell culture medium were transiently transfected with 40 ng pSTAT1(2)-luciferase reporter (Panomics), 8 ng of LacZ reporter as internal control reporter and 52 ng of pBSK using 0.32 μL Jet-PEI (Polyplus) as transfection reagent per well in 96-well plate format. After overnight incubation at 37° C., 10% CO2, transfection medium was removed. 75 μL of DMEM+1.5% heat inactivated fetal calf serum was added. 15 μL of compound at 6.7× concentration was added for 60 min and then 10 μL of human OSM (Peprotech) at 33 ng/mL final concentration. […]
40 μL of cell lysate was used to read β-galactosidase activity by adding 180 μL βGal solution (30 μl ONPG 4 mg/mL+150 μL β-Galactosidase buffer (0.06 M Na2HPO4, 0.04 M NaH2PO4, 1 mM MgCl2)) for 20 min. The reaction was stopped by addition of 50 μL Na2CO3 1 M. Absorbance was read at 405 nm.
Luciferase activity was measured using 40 μL cell lysate plus 40 μl of Steadylite® as described by the manufacturer (Perkin Elmer), on the Envision (Perkin Elmer). […]

O=C(Nc1nc2cccc(-c3ccc(OCc4ccccc4)nc3)n2n1)C1CC1 [Compound 57, Cyclopropanecarboxylic acid [5-(6-benzyloxy-pyridin-3-yl)-[1,2,4]triazolo[1,5-a]pyridin-2-yl]-amide]
IC50 [1]: > 501 nM

O=C(Nc1nc2cccc(-c3ccc(OCc4ccccn4)cc3)n2n1)C1CC1 [Compound 37, N-(5-(4-(pyridin-2-ylmethoxy)phenyl)-[1,2,4]triazolo[1,5-a]pyridin-2-yl)cyclopropanecarboxamide]
Fold difference between the hERG IC20 and the unbound Cmax (hERG channels; Dose 10 (rat CIA model)): 7
NOAEL at 7 day (in vivo): 500 mg/kg

O=C(Nc1nc2cccc(-c3ccc(NCc4ccccc4)cc3)n2n1)C1CC1 [Compound 72, N-(5-(4-(benzylamino)phenyl)-[1,2,4]triazolo[1,5-a]pyridin-2-yl)cyclopropanecarboxamide]
IC50 [1]: > 501 nM

N#Cc1ccc(COc2ccc(-c3cccc4nc(NC(=O)C5CC5)nn34)cc2)cn1 [Compound 176, N-(5-(4-((6-cyanopyridin-3-yl)methoxy)phenyl)-[1,2,4]triazolo[1,5-a]pyridin-2-yl)cyclopropanecarboxamide]
IC50 [1]: 1 to 100 nM
EC50 [2]: 1 to 100 nM
Fold difference between the hERG IC20 and the unbound Cmax (hERG channels; Dose 3 (rat CIA model)): 137
Fold difference between the hERG IC20 and the unbound Cmax (hERG channels; Dose 10 (rat CIA model)): 82
potential for QT prolongation (hERG channels; compared to Compound 37): much lower potential QT prolongation issue
NOAEL at 7 day (in vivo): 500 mg/kg

CC(=O)Nc1ccc(COc2ccc(-c3cccc4nc(NC(=O)C5CC5)nn34)cc2)cc1 [Compound 92, N-(5-(4-(4-acetamidobenzyloxy)phenyl)-[1,2,4]triazolo[1,5-a]pyridin-2-yl)cyclopropanecarboxamide]
EC50 [2]: > 1000 nM

O=C(Nc1nc2cccc(-c3ccc(OCc4cccnc4)cc3)n2n1)C1CC1 [Compound 36, N-(5-(4-(pyridin-3-ylmethoxy)phenyl)-[1,2,4]triazolo[1,5-a]pyridin-2-yl)cyclopropanecarboxamide]
IC50 [1]: 101 to 500 nM

O=C(Nc1nc2cccc(-c3ccc(OCc4ccccc4)cc3)n2n1)C1CC1 [Compound 12, N-(5-(4-(benzyloxy)phenyl)-[1,2,4]triazolo[1,5-a]pyridin-2-yl)cyclopropanecarboxamide]
IC50 [1]: 1 to 100 nM
